Laboratory results: patent US20210002623A1, “AMINOPEPTIDASE AND ITS USES” (Centre national de la recherche scientifique, priority 2017, published 2021)

Tests used:
MjTET [1] = biological target: T1, MjTET (Methanocaldococcus jannaschii, UniProt Q57975); test: Effect of inhibitors on MjTET activity (Leu-pNA hydrolysis); format: biochemical; conditions: 5 mM Leu-pNA, 0.1 mM CoCl2, pH 8.5, 85° C., 5 min
T1 construct: made in house; host or cells: Escherichia coli ArcticExpress (DE3)-RIL
T1 sequence (Q57975 1-350): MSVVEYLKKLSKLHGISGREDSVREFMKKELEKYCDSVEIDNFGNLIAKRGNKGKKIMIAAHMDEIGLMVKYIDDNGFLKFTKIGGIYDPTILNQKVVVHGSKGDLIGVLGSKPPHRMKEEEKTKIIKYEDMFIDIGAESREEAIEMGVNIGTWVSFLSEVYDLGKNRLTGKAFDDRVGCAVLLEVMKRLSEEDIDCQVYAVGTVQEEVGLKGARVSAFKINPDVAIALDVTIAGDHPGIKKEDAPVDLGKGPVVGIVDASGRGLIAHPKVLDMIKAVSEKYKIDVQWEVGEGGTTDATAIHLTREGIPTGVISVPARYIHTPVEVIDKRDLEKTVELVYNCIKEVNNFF
Protocol: The inhibitory effect of EDTA, Amastatine and Bestatine was tested on the MjTET enzymatic activity. 4 μg/mL of MjTET were incubated with each inhibitor separately in the presence of 5 mM Leu-pNA, 50 mM CHES, 150 mM KCl, 0.1 mM CoCl2, pH 8.5 at 85° C. for 5 min. Three replicates (with inhibitor) and two controls (without inhibitor) were assayed for each experimental point.

MjTET [2] = biological target: T1, MjTET; test: Effect of metal cations on MjTET activity; format: biochemical; conditions: 5 mM Leu-pNA, pH 8.5, 75° C., 5 min
Protocol: The metal cations XCl2 were incubated at 0.1 mM concentration with 4 μg/mL of MjTET and 5 mM of Leu-pNA in 50 mM CHES, 150 mM KCl, pH 8.5 for 5 min at 75° C. To assess the effect of metal cations on MjTET activity, the enzymatic reaction was followed as described before.

`O=C(O)CN(CCN(CC(=O)O)CC(=O)O)CC(=O)O` [EDTA] was tested, and the “inhibition of MjTET enzymatic activity” value (MjTET [1]; 5 mM EDTA) was “completely inhibited”.
`[Cl-].[Cl-].[Zn+2]` [ZnCl2] was tested, and the “effect on MjTET LAP activity” value (MjTET [2]; 0.1 mM ZnCl2) was “significant inhibition”.
With `CC(C)C[C@@H](N)[C@H](O)C(=O)N[C@H](C(=O)N[C@H](C(=O)N[C@@H](CC(=O)O)C(=O)O)C(C)C)C(C)C` [amastatine] the “inhibition of MjTET LAP activity” value (MjTET [1]; 0.2 mM amastatine) was “completely inhibited”.
For `CC(C)C[C@H](NC(=O)[C@@H](O)[C@H](N)Cc1ccccc1)C(=O)O` [bestatine], the “inhibition of MjTET LAP activity” value (MjTET [1]; 1 mM bestatine) was “completely inhibited”.
With `[Cl-].[Cl-].[Co+2]` [cobalt ions] the “effect on MjTET LAP activity” value (MjTET [2]; 0.1 mM metal cation) was “increase of LAP activity”.
